In the Bradley open melting point set (2014):
“And” between values parts separate entries of the source, which are not always exact repeats. Equal values may be shown once.

Structure (SMILES) | melting point
C/C(CCc1oc2ccc(Cl)cc2c1-c1ccc(C)o1)=N\O | 115 °C
COc1ccc(-c2csc(/C(C#N)=C/c3ccc(Cl)cc3Cl)n2)cc1 | 143 °C
N#CC(=Cc1cccc(O)c1)C1N=c2ccccc2=N1 | 300 °C
CC(O)CN (racemic) [dl-1-amino-2-propanol] | -2 °C
O=C[C@H](O)[C@@H](O)[C@@H](O)CO (racemic) [dl-arabinose] | 159 °C
CC(C)CC(N)C(=O)O (stereo in doubt) [D-Leucine] | 293 °C
CC(=O)OC[C@H]1O[C@@H](OC(C)=O)[C@H](OC(C)=O)[C@@H]1OC(C)=O (stereo in doubt) [beta-D-ribofuranose 1,2,3,5-tetraacetate] | 82 °C
CCCCCC=CCC=CCCCCCCCC(=O)O (stereo in doubt) [linoleic acid] | -8.5 °C
O=C1CCC(c2ccccc2)c2ccccc21 (stereo not given) [1(2H)-Naphthalenone, 3,4-dihydro-4-phenyl-] | 75 °C
S=P(N1CC1)(N1CC1)N1CC1 [1,1',1''-Phosphorothioyltriaziridine] | 51.5 °C
OC(C(F)(F)F)C(F)(F)F [1,1,1,3,3,3-Hexafluoropropan-2-ol] | -3 °C
CC(CO)(CO)CO [1,1,1-tris(hydroxymethyl)ethane] | 190 °C
OC(c1ccccc1)(c1ccccc1)C(O)(c1ccccc1)c1ccccc1 [1,1,2,2-Tetraphenylethane-1,2-diol] | 171 °C
ClC(Cl)C(Cl)Cl [1,1,2,2-tetrachloroethane] | -43 °C
C#CC(O)(c1ccccc1)c1ccccc1 [1,1-diphenyl-2-propyn-1-ol] | 46 °C
OC1CC2=C(CC=CC2)CC1O (stereo not given) [1,2,3,4,5,8-hexahydronaphthalene-2,3-diol] | 121 °C
Fc1ccc(F)c(F)c1F [1,2,3,4-tetrafluorobenzene] | -42 °C
Cc1ccc(C)c(C)c1C [1,2,3,4-tetramethylbenzene] | -6 °C
Clc1cc(Cl)c(Cl)c(Cl)c1 [1,2,3,5-tetrachlorobenzene] | 53 °C and 55 °C and 51.5 °C
Clc1cccc(Cl)c1Cl [1,2,3-Trichlorobenzene] | 53 °C
c1c[nH]nn1 [1,2,3-triazole] | 24 °C
BrCC(Br)CBr [1,2,3-tribromopropane] | 17 °C
Clc1cccc(Cl)c1Cl [1,2,3-trichlorobenzene] | 54 °C
COc1cccc(OC)c1OC [1,2,3-trimethoxybenzene] | 45 °C
Clc1cc(Cl)c(Cl)cc1Cl [1,2,4,5-Tetrachlorobenzene] | 139 °C

Structure (SMILES) | melting point
Brc1cc(Br)c(Br)cc1Br [1,2,4,5-tetrabromobenzene] | 182 °C
Clc1ccc(Cl)c(Cl)c1 [1,2,4-Trichlorobenzene] | 17 °C
Sc1nnc2ccccn12 [1,2,4-triazolo[4,3-a]pyridine-3-thiol] | 210 °C
Brc1ccc(Br)c(Br)c1 [1,2,4-tribromobenzene] | 43 °C (2×) and 44 °C
Clc1cc(Cl)c(I)cc1Cl [1,2,4-trichloro-5-iodobenzene] | 104 °C
Clc1ccc(Cl)c(Cl)c1 [1,2,4-trichlorobenzene] | 17 °C
Cc1ccc(C)c(C)c1 [1,2,4-trimethylbenzene] | -44 °C
OCCCCC(O)CO (stereo not given) [1,2,6-hexanetriol] | -20 °C
c1cc2c3c(cccc3c1)CC2 [1,2-Dihydroacenaphthylene] | 95 °C
c1ccc(NNc2ccccc2)cc1 [1,2-Diphenylhydrazine] | 125 °C
C[C@@H](O)CO [1,2-Propanediol] | -60 °C
CP(C)CCP(C)C [1,2-bis(dimethylphosphino)ethane] | 180 °C
Cc1ccc(CCc2ccc(C)cc2)cc1 [1,2-di(p-tolyl)ethane] | 81 °C
CCC(Br)CBr (stereo not given) [1,2-dibromobutane] | -65 °C
BrCCBr [1,2-dibromoethane] [listing 1 of 2 here] | 10 °C
BrCCBr [1,2-dibromoethane] [listing 2 of 2 here] | 10 °C
CC(Cl)CCl (stereo not given) [1,2-dichloropropane] | -100 °C
CCOc1ccccc1OCC [1,2-diethoxybenzene] | 44 °C
CCc1ccccc1CC [1,2-diethylbenzene] | -31 °C
ICCI [1,2-diiodoethane] [listing 1 of 2 here] | 82 °C
ICCI [1,2-diiodoethane] [listing 2 of 2 here] | 81 °C
C1=CC=C/C=CC=C1 [1,3,5,7-cyclooctatetraene] | -5 °C
Clc1cc(Cl)cc(Cl)c1 [1,3,5-Trichlorobenzene] | 64 °C
Clc1cc(Cl)c(I)c(Cl)c1 [1,3,5-trichloro-2-iodobenzene] | 55 °C
Clc1cc(Cl)cc(Cl)c1 [1,3,5-trichlorobenzene] | 64 °C

Structure (SMILES) | melting point
O=[N+]([O-])c1c(F)cc(F)cc1F [1,3,5-trifluoro-2-nitrobenzene] | 4 °C
CC(C)c1cc(C(C)C)cc(C(C)C)c1 [1,3,5-triisopropylbenzene] | -7 °C
COc1cc(OC)cc(OC)c1 [1,3,5-trimethoxybenzene] | 53 °C
O=c1n(CCO)c(=O)n(CCO)c(=O)n1CCO [1,3,5-tris(2-hydroxyethyl)cyanuric acid] | 138 °C
O=C(Nc1ccccc1)Nc1ccccc1 [1,3-DIPHENYLUREA] | 232 °C
C1COCOC1 [1,3-Dioxane] | -42 °C
OCc1cccc(CO)c1 [1,3-benzenedimethanol] [listing 1 of 2 here] | 58 °C
OCc1cccc(CO)c1 [1,3-benzenedimethanol] [listing 2 of 2 here] | 58 °C
c1ccc(P(CCCP(c2ccccc2)c2ccccc2)c2ccccc2)cc1 [1,3-bis(diphenylphosphino)propane] | 61 °C
C(=C\c1cccc(/C=C/c2ccccc2)c1)/c1ccccc1 [1,3-bis[(E)-2-phenylethenyl]benzene] | 150 °C
CC(=O)c1cccc(C(C)=O)c1 [1,3-diacetylbenzene] | 36 °C
BrCCCBr [1,3-dibromopropane] | -34 °C
Cl/C=C/CCl [1,3-dichloropropene, cis trans] | -84 °C
Oc1cc(O)c2ccccc2c1 [1,3-dihydroxynaphthalene] | 125 °C
CN1CCCN(C)C1=O [1,3-dimethyl-3,4,5,6-tetrahydro-2(1h)-pyrimidinone] | -23 °C
C1COCO1 [1,3-dioxolane] | -95 °C
OC(COc1ccccc1)COc1ccccc1 [1,3-diphenoxy-2-propanol] | 82 °C
O=C(Cc1ccccc1)Cc1ccccc1 [1,3-diphenylacetone] [listing 1 of 2 here] | 33 °C
O=C(Cc1ccccc1)Cc1ccccc1 [1,3-diphenylacetone] [listing 2 of 2 here] | 34 °C
c1ccc(CCCc2ccccc2)cc1 [1,3-diphenylpropane] | -21 °C
Cc1ccc(S(=O)(=O)OCCCOS(=O)(=O)c2ccc(C)cc2)cc1 [1,3-propanediol di-p-toluenesulfonate] | 91 °C
SCCCS [1,3-propanedithiol] | -79 °C
O=C1C=CC(=O)C=C1 [1,4-Benzoquinone] | 114 °C
Brc1ccc(Br)cc1 [1,4-Dibromobenzene] | 88 °C
O=C1C=CC(=O)c2ccccc21 [1,4-Naphthoquinone] | 126 °C
